Data reported in ChEMBL document CHEMBL1124088, “Synthesis and evaluation of 3-substituted analogues of 1,2,3,4-tetrahydroisoquinoline as inhibitors of phenylethanolamine N-methyltransferase” (J Med Chem, 1988).
pKi: −log10 of the molar value.

molecular target: T1, Phenylethanolamine N-methyltransferase (Bos taurus, UniProt P10938); test: In vitro inhibitory activity measured against bovine adrenal phenylethanolamine N-methyltransferase(PNMT)
T1 sequence (P10938 whole entry): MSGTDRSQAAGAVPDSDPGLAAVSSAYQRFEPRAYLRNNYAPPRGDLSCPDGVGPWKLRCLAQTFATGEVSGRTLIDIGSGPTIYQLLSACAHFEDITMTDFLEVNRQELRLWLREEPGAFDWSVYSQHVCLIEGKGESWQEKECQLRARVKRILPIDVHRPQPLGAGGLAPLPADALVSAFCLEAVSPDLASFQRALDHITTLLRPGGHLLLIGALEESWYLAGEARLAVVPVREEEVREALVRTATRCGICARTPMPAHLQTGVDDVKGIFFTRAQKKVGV

| Compound | pKi |
| --- | --- |
| O=C(O)C1Cc2ccccc2CN1 (configuration not stated) | < 2.70 |
| NC(=O)C1Cc2ccccc2CN1 (configuration not stated) | 4.39 |
| CCC1Cc2ccccc2CN1 (configuration not stated) | 4.62 |
| Clc1ccc2c(c1Cl)CNCC2 | 6.62 |
| OCC1Cc2ccccc2CN1 (configuration not stated) | 5.62 |
| OCC1Cc2ccc(Cl)c(Cl)c2CN1 (configuration not stated) | 6.42 |

molecular target: T1, Phenylethanolamine N-methyltransferase; test: In vitro inhibitory activity measured against bovine adrenal phenylethanolamine N-methyltransferase(PNMT); Ki values determined at incubation times of 5, 10, 15, 20 and 30 min

| Compound | pKi |
| --- | --- |
| COC(=O)C1Cc2ccccc2CN1 (configuration not stated) | 4.16 |
